How the values were obtained:
MCL-1 = MCL-1 (Homo sapiens (Human), UniProt Q07820); assay: Cell free Mcl-1:Bim affinity assay (fluorescence polarization competition); type: binding; details: 15 nM MCL-1, 5 nM FITC-Bim, 1 hour at room temperature; class symbols; read-out: BIM_Ki
Method in brief: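 Compounds competed with FITC-labelled Bim peptide (5 nM) for MCL-1 (15 nM) in HEPES/NaCl buffer with 1% DMSO, 1 h at room temperature. Fluorescence polarization (535 nm emission) gave % inhibition versus DMSO and positive controls; IC50 from 10-point curves, converted to Ki by the Nikolovska-Coleska equation.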

H929 cells = assay: Cell viability assay (H929 10 FBS); type: cell-based; details: Homo sapiens, NCI-H929, 24 hours, read-out: H929_10FBS IC50
Method in brief: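 H929 cells, 4000/well, in RPMI 1640 with 10% FBS, sodium pyruvate, HEPES and glucose were exposed to compound 24 h at 37 °C. Viability read as luminescence after 30-60 min at RT with CellTiter-Glo or ATPlite 1 Step.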

Sequence of MCL-1 (Q07820 whole entry): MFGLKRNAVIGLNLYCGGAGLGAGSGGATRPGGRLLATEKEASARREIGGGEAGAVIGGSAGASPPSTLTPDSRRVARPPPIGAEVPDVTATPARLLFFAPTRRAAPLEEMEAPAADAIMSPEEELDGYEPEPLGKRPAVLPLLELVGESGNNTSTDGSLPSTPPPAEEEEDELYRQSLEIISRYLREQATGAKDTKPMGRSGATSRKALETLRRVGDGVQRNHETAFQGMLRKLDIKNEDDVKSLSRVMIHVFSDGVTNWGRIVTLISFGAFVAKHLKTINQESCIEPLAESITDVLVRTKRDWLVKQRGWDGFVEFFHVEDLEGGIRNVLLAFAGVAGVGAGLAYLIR

With `CC1(C)OC/C=C/[C@H](OC(=O)N[C@@H]2CCOC2)[C@@H]2CC[C@H]2CN2C[C@@]3(CCOc4cc(Cl)ccc43)COc3ccc(cc32)S(=O)(=O)NC1=O` [Example 302, [(3R,6R,7S,8E,22S)-7′-Chloro-12,12-dimethyl-13,15,15-trioxo-spiro[11,20-dioxa-15-dioxa-15-thia-1,14-diazatetracyclo[14.7.2.03,6.019,24]pentacosa-8,16,18,24-tetraene-22,4′-chromane]-7-yl] N-[(3R)-tetrahydrofuran-3-yl]carbamate] the Ki (MCL-1) was < 1 nM and the IC50 (H929 cells) was < 500 nM.

In the case of `CN(C)C1CN(C(=O)O[C@H]2/C=C/CN(C)C(C)(C)C(=O)NS(=O)(=O)c3ccc4c(c3)N(C[C@@H]3CC[C@H]32)C[C@@]2(CCCc3cc(Cl)ccc32)CO4)C1` [Example 214, [(3R,6R,7S,8E,22S)-6′-Chloro-11,12,12-trimethyl-13,15,15-trioxo-spiro[20-oxa-15-thia-1,11,14-triazatetracyclo[14.7.2.03,6.019,24]pentacosa-8,16,18,24-tetraene-22,1′-tetralin]-7-yl] 3-(dimethylamino)azetidine-1-carboxylate], the Ki (MCL-1) is reported as < 1 nM and the IC50 (H929 cells) is reported as < 500 nM.

In the case of `CC1(C)OC/C=C/[C@H](O)[C@@H]2CC[C@H]2CN2C[C@]3(COc4ccc(cc42)S(=O)(=O)NC1=O)OCCc1cc(Cl)ccc13` [Example 249, (3R,6R,7S,8E,22R)-6′-Chloro-7-hydroxy-12,12-dimethyl-15,15-dioxo-spiro[11,20-dioxa-15-thia-1,14-diazatetracyclo[14.7.2.03,6.019,24]pentacosa-8,16,18,24-tetraene-22,1′-isochromane]-13-one], the Ki (MCL-1) is reported as 1 to 100 nM and the IC50 (H929 cells) is reported as > 1000 nM.

With `CN1C/C=C/[C@H](OC(=O)N[C@@H]2CCOC2)[C@@H]2CC[C@H]2CN2C[C@@]3(CCCc4cc(Cl)ccc43)COc3ccc(cc32)S(=O)(=O)NC(=O)C12CCC2` [Example 243, [(3R,6R,7S,8E,22S)-6′-Chloro-11-methyl-12,12-(1,3-propylene)-13,15,15-trioxo-spiro[20-oxa-15-thia-1,11,14-triazatetracyclo[14.7.2.03,6.019,24]pentacosa-8,16,18,24-tetraene-22,1′-tetralin]-7-yl] N-[(3R)-tetrahydrofuran-3-yl]carbamate] the Ki (MCL-1) was < 1 nM and the IC50 (H929 cells) was < 500 nM.

For `CCN1C/C=C/[C@H](OC(=O)N2CC(NC)C2)[C@@H]2CC[C@H]2CN2C[C@@]3(CCCc4cc(Cl)ccc43)COc3ccc(cc32)S(=O)(=O)NC(=O)C1(C)C` [Example 223, [(3R,6R,7S,8E,22S)-6′-Chloro-11-ethyl-12,12-dimethyl-13,15,15-trioxo-spiro[20-oxa-15-thia-1,11,14-triazatetracyclo[14.7.2.03,6.019,24]pentacosa-8,16,18,24-tetraene-22,1′-tetralin]-7-yl] 3-(methylamino)azetidine-1-carboxylate], the Ki (MCL-1) was < 1 nM and the IC50 (H929 cells) was < 500 nM.

In the case of `CN1C/C=C/[C@H](O)[C@@H]2CC[C@H]2CN2C[C@@]3(CCCc4cc(Cl)ccc43)COc3ccc(cc32)S(=O)(=O)NC(=O)C1(C)C` [Example 43, (3R,6R,7S,8E,22S)-6′-Chloro-7-hydroxy-11,12,12-trimethyl-15,15-dioxo-spiro[20-oxa-15-thia-1,11,14-triazatetracyclo[14.7.2.03,6.019,24]pentacosa-8,16,18,24-tetraene-22,1′-tetralin]-13-one], the Ki (MCL-1) is reported as 1 to 100 nM and the IC50 (H929 cells) is reported as > 1000 nM.

With `CC1(C)OC/C=C/[C@H](OC(=O)NCC(F)F)[C@@H]2CC[C@H]2CN2C[C@@]3(CCCc4cc(Cl)ccc43)COc3ccc(cc32)S(=O)(=O)NC1=O` [Example 179, [(3R,6R,7S,8E,22S)-6′-Chloro-12,12-dimethyl-13,15,15-trioxo-spiro[11,20-dioxa-15-thia-1,14-diazatetracyclo[14.7.2.03,6.019,24]pentacosa-8,16,18,24-tetraene-22,1′-tetralin]-7-yl] N-(2,2-difluoroethyl)carbamate] the Ki (MCL-1) was < 1 nM and the IC50 (H929 cells) was < 500 nM.

In the case of `C[C@@H]1C(=O)NS(=O)(=O)c2ccc3c(c2)N(C[C@@H]2CC[C@H]2[C@@H](O)/C=C/CN1C)C[C@@]1(CCCc2cc(Cl)ccc21)CO3` [Example 144, (3R,6R,7S,8E,12R,22S)-6′-Chloro-7-hydroxy-11,12-dimethyl-15,15-dioxo-spiro[20-oxa-15-thia-1,11,14-triazatetracyclo[14.7.2.03,6.019,24]pentacosa-8,16,18,24-tetraene-22,1′-tetralin]-13-one], the Ki (MCL-1) is reported as 1 to 100 nM and the IC50 (H929 cells) is reported as > 1000 nM.

For `CCOC(=O)N(C)[C@@H]1/C=C/CN(C)C(C)(C)C(=O)NS(=O)(=O)c2ccc3c(c2)N(C[C@@H]2CC[C@H]21)C[C@@]1(CCCc2cc(Cl)ccc21)CO3` [Example 253, Ethyl N-methyl-N-[(3R,6R,7R,8E,22S)-6′-chloro-11,12,12-trimethyl-13,15,15-trioxo-spiro[20-oxa-15-thia-1,11,14-triazatetracyclo[14.7.2.03,6.019,24]pentacosa-8,16(25),17,19(24)-tetraene-22,1′-tetralin]-7-yl]carbamate], the Ki (MCL-1) was 1 to 100 nM and the IC50 (H929 cells) was > 1000 nM.

With `CCN1C/C=C/[C@H](OC(=O)NC2CCOCC2)[C@@H]2CC[C@H]2CN2C[C@@]3(CCCc4cc(Cl)ccc43)COc3ccc(cc32)S(=O)(=O)NC(=O)C1(C)C` [Example 220, [(3R,6R,7S,8E,22S)-6′-Chloro-11-ethyl-12,12-dimethyl-13,15,15-trioxo-spiro[20-oxa-15-thia-1,11,14-triazatetracyclo[14.7.2.03,6.019,24]pentacosa-8,16,18,24-tetraene-22,1′-tetralin]-7-yl]N-tetrahydropyran-4-ylcarbamate] the Ki (MCL-1) was < 1 nM and the IC50 (H929 cells) was < 500 nM.

In the case of `CC1(C)OC/C=C/[C@H](OC(=O)N[C@H]2CCOC2)[C@@H]2CC[C@H]2CN2C[C@@]3(CCCc4cc(Cl)ccc43)COc3ccc(cc32)S(=O)(=O)NC1=O` [Example 61, [(3R,6R,7S,8E,22S)-6′-Chloro-12,12-dimethyl-13,15,15-trioxo-spiro[11,20-dioxa-15-thia-1,14-diazatetracyclo[14.7.2.03,6.019,24]pentacosa-8,16,18,24-tetraene-22,1′-tetralin]-7-yl] N-[(3S)-tetrahydrofuran-3-yl]carbamate], the Ki (MCL-1) is reported as < 1 nM and the IC50 (H929 cells) is reported as < 500 nM.

With `CN(C)C(=O)CO[C@H]1/C=C/COC(C)(C)C(=O)NS(=O)(=O)c2ccc3c(c2)N(C[C@@H]2CC[C@H]21)C[C@@]1(CCCc2cc(Cl)ccc21)CO3` [Example 140, 2-[(3R,6R,7S,8E,22S)-6′-Chloro-12,12-dimethyl-13,15,15-trioxo-spiro[11,20-dioxa-15-thia-1,14-diazatetracyclo[14.7.2.03,6.019,24]pentacosa-8,16,18,24-tetraene-22,1′-tetralin]-7-yl]oxy-N,N-dimethyl-acetamide] the Ki (MCL-1) was < 1 nM and the IC50 (H929 cells) was < 500 nM.

`CO[C@@H]1/C=C/COCC(=O)NS(=O)(=O)c2ccc3c(c2)N(C[C@@H]2CC[C@H]21)C[C@@]1(CCCc2cc(Cl)ccc21)CO3` [Example 112, (3R,6R,7R,8E,22S)-6′-Chloro-7-methoxy-15,15-dioxo-spiro[[11,20]dioxa[15]thia-1,14-diazatetracyclo[14.7.2.03,6.019,24]pentacosa[8,16(25),17,19(24)]tetraene-22,1′-tetralin]-13-one] was tested, and the Ki (MCL-1) was 1 to 100 nM and the IC50 (H929 cells) was > 1000 nM.

`CO[C@H]1/C=C/C[C@@H](C)CC(=O)NS(=O)(=O)c2ccc3c(c2)N(C[C@@H]2CC[C@H]21)C[C@@]1(CCCc2cc(Cl)ccc21)CO3` [Example 84, (3R,6R,7S,8E,11R,22S)-6′-Chloro-7-methoxy-11-methyl-15,15-dioxo-spiro[20-oxa-15-thia-1,14-diazatetracyclo[14.7.2.03,6.019,24]pentacosa-8,16(25),17,19(24)-tetraene-22,1′-tetralin]-13-one] was tested, and the Ki (MCL-1) was 1 to 100 nM and the IC50 (H929 cells) was > 1000 nM.

`CN(C(=O)O[C@H]1/C=C/CN(C)C2(CCC2)C(=O)NS(=O)(=O)c2ccc3c(c2)N(C[C@@H]2CC[C@H]21)C[C@@]1(CCCc2cc(Cl)ccc21)CO3)[C@H]1CCOC1` [Example 241, [(3R,6R,7S,8E,22S)-6′-Chloro-11-methyl-12,12-(1,3-propylene)-13,15,15-trioxo-spiro[20-oxa-15-thia-1,11,14-triazatetracyclo[14.7.2.03,6.019,24]pentacosa-8,16,18,24-tetraene-22,1′-tetralin]-7-yl] N-methyl-N-[(3S)-tetrahydrofuran-3-yl]carbamate] was tested, and the Ki (MCL-1) was < 1 nM and the IC50 (H929 cells) was < 500 nM.

For `CN(C(=O)O[C@H]1/C=C/COC2(CCC2)C(=O)NS(=O)(=O)c2ccc3c(c2)N(C[C@@H]2CC[C@H]21)C[C@@]1(CCCc2cc(Cl)ccc21)CO3)C1COC1` [Example 235, [(3R,6R,7S,8E,22S)-6′-Chloro-12,12-(1,3-propylene)-13,15,15-trioxo-spiro[11,20-dioxa-15-thia-1,14-diazatetracyclo[14.7.2.03,6.019,24]pentacosa-8,16,18,24-tetraene-22,1′-tetralin]-7-yl] N-methyl-N-(oxetan-3-yl)carbamate], the Ki (MCL-1) was < 1 nM and the IC50 (H929 cells) was < 500 nM.

`CC1(C)OC/C=C/[C@H](OCC(=O)N2C[C@@H](F)[C@H](F)C2)[C@@H]2CC[C@H]2CN2C[C@@]3(CCCc4cc(Cl)ccc43)COc3ccc(cc32)S(=O)(=O)NC1=O` [Example 290, (3R,6R,7S,8E,22S)-6′-Chloro-7-[2-[(3R,4R)-3,4-difluoropyrrolidin-1-yl]-2-oxo-ethoxy]-12,12-dimethyl-15,15-dioxo-spiro[11,20-dioxa-15-thia-1,14-diazatetracyclo[14.7.2.03,6.019,24]pentacosa-8,16,18,24-tetraene-22,1′-tetralin]-13-one] was tested, and the Ki (MCL-1) was < 1 nM and the IC50 (H929 cells) was < 500 nM.

From patent US11130769B2 (Prelude Therapeutics Incorporated, priority 2018, dated 2021)
